Laboratory results: the supplement of paper PMC11061612

Assays:
AZD2811 = compound: CCN(CCO)CCCOc1ccc2c(Nc3cc(CC(=O)Nc4cccc(F)c4)[nH]n3)ncnc2c1 [AZD2811]; details: max 1 µM
How it was run: (§1)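 Viability was measured with CellTiter-Glo 2.0 luminescence after 72 hours of dosing at a final DMSO of typically 0.2%, and scaled between blank-well and DMSO-well means. Beforehand, cancer cell lines sat 24 hours at 37°C and 5% CO2 in 1536-well plates in 7.5 μl DMEM/F12 or RPMI with 10% FBS. A non-linear mixed effects model fitted two-parameter logistic curves to the dose responses. The single-agent IC50 comes from these fits.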

AZD5991 = compound: Cc1c2c(nn1C)CSCc1cc(n(C)n1)CSc1cc(c3ccccc3c1)OCCCc1c(C(=O)O)n(C)c3c-2c(Cl)ccc13 [AZD5991]; details: max 1 µM
How it was run: as §1

Gefitinib = compound: COc1cc2ncnc(Nc3ccc(F)c(Cl)c3)c2cc1OCCCN1CCOCC1 [Gefitinib]; details: max 10 µM
How it was run: as §1

AZD5153 = compound: COc1nnc2ccc(N3CCC(c4ccc(OCCN5CCN(C)C(=O)[C@H]5C)cc4)CC3)nn12 [AZD5153]; details: max 1 µM
How it was run: as §1

SN-38 = compound: CCc1c2c(nc3ccc(O)cc13)-c1cc3c(c(=O)n1C2)COC(=O)[C@]3(O)CC [SN-38]; details: max 0.3 µM
How it was run: as §1

Lapatinib = compound: CS(=O)(=O)CCNCc1ccc(-c2ccc3ncnc(Nc4ccc(OCc5cccc(F)c5)c(Cl)c4)c3c2)o1 [Lapatinib]; details: max 10 µM
How it was run: as §1

Prexasertib = compound: COc1cccc(OCCCN)c1-c1cc(Nc2cnc(C#N)cn2)n[nH]1 [Prexasertib]; details: max 1 µM
How it was run: as §1

Doxorubicin = compound: COc1cccc2c1C(=O)c1c(O)c3c(c(O)c1C2=O)C[C@@](O)(C(=O)CO)C[C@@H]3O[C@H]1C[C@H](N)[C@H](O)[C@H](C)O1 [Doxorubicin]; details: max 1 µM
How it was run: as §1

AZD7648 = compound: Cc1cc2ncnn2cc1Nc1ncc2c(n1)n(C1CCOCC1)c(=O)n2C [AZD7648]; details: max 10 µM
How it was run: as §1

Venetoclax = compound: CC1(C)CCC(CN2CCN(c3ccc(C(=O)NS(=O)(=O)c4ccc(NCC5CCOCC5)c([N+](=O)[O-])c4)c(Oc4cnc5[nH]ccc5c4)c3)CC2)=C(c2ccc(Cl)cc2)C1 [Venetoclax]; details: max 1 µM
How it was run: as §1

Dasatinib = compound: CC1=C(C(=CC=C1)Cl)NC(=O)C2=CN=C(S2)NC3=CC(=NC(=N3)C)N4CCN(CC4)CCO [Dasatinib]; details: max 2 µM
How it was run: as §1

Crizotinib = compound: C[C@@H](Oc1cc(-c2cnn(C3CCNCC3)c2)cnc1N)c1c(Cl)ccc(F)c1Cl [Crizotinib]; details: max 10 µM
How it was run: as §1

Capivasertib = compound: C1CN(CCC1(C(=O)N[C@@H](CCO)C2=CC=C(C=C2)Cl)N)C3=NC=NC4=C3C=CN4 [Capivasertib]; details: max 10 µM
How it was run: as §1

AZD6738 = compound: C[C@@H]1COCCN1C2=NC(=NC(=C2)C3(CC3)[S@](=N)(=O)C)C4=C5C=CNC5=NC=C4 [AZD6738]; details: max 10 µM
How it was run: as §1

Taselisib = compound: Cc1nc(-c2cn3c(n2)-c2ccc(-c4cnn(C(C)(C)C(N)=O)c4)cc2OCC3)n(C(C)C)n1 [Taselisib]; details: max 10 µM
How it was run: as §1

AZD4320 = compound: CN(CC[C@H](CSC1=CC=CC=C1)NC2=C(C=C(C=C2)S(=O)(=O)NC(=O)C3=CC=C(C=C3)N4CCC(CC4)[C@H](C5=CC=CC=C5C6=CC=C(C=C6)Cl)O)S(=O)(=O)C(F)(F)F)CCO [AZD4320]; details: max 1 µM
How it was run: as §1

AZD0156 = compound: CN(C)CCCOc1ccc(-c2ccc3ncc4c(c3c2)n(C2CCOCC2)c(=O)n4C)cn1 [AZD0156]; details: max 3 µM
How it was run: as §1

Savolitinib = compound: C[C@@H](c1ccc2nccn2c1)n1nnc2ncc(-c3cnn(C)c3)nc21 [Savolitinib]; details: max 1 µM
How it was run: as §1

Selumetinib = compound: Cn1cnc2c(F)c(Nc3ccc(Br)cc3Cl)c(C(=O)NOCCO)cc21 [Selumetinib]; details: max 10 µM
How it was run: as §1

Alisertib = compound: COc1cc(Nc2ncc3c(n2)-c2ccc(Cl)cc2C(c2c(F)cccc2OC)=NC3)ccc1C(=O)O [Alisertib]; details: max 10 µM
How it was run: as §1

SG3199 = compound: CC1=CN2[C@@H](C1)C=NC3=CC(=C(C=C3C2=O)OC)OCCCCCOC4=C(C=C5C(=C4)N=C[C@@H]6CC(=CN6C5=O)C)OC [SG3199]; details: max 0.001 µM
How it was run: as §1

AZD1390 = compound: CC(C)n1c(=O)n(C)c2cnc3cc(F)c(-c4ccc(OCCCN5CCCCC5)nc4)cc3c21 [AZD1390]; details: max 0.3 µM
How it was run: as §1

Trametinib = compound: CC(=O)Nc1cccc(-n2c(=O)n(C3CC3)c(=O)c3c(Nc4ccc(I)cc4F)n(C)c(=O)c(C)c32)c1 [Trametinib]; details: max 1 µM
How it was run: as §1

Palbociclib = compound: CC(=O)c1c(C)c2cnc(Nc3ccc(N4CCNCC4)cn3)nc2n(C2CCCC2)c1=O [Palbociclib]; details: max 10 µM
How it was run: as §1

AZD8186 = compound: C[C@@H](Nc1cc(F)cc(F)c1)c1cc(C(=O)N(C)C)cc2c(=O)cc(N3CCOCC3)oc12 [AZD8186]; details: max 3 µM
How it was run: as §1

AZD1775 = compound: C=CCn1c(=O)c2cnc(Nc3ccc(N4CCN(C)CC4)cc3)nc2n1-c1cccc(C(C)(C)O)n1 [AZD1775]; details: max 3 µM
How it was run: as §1

Olaparib = compound: O=C(c1cc(Cc2n[nH]c(=O)c3ccccc23)ccc1F)N1CCN(C(=O)C2CC2)CC1 [Olaparib]; details: max 10 µM
How it was run: as §1

Cell Line: OS-RC-2 (Kidney Carcinoma)
- IC50, cell viability 72 h (AZD2811): > 1000 nM
- IC50, cell viability 72 h (AZD5991): > 1000 nM
- IC50, cell viability 72 h (Gefitinib): > 10000 nM
- IC50, cell viability 72 h (AZD5153): > 1000 nM
- IC50, cell viability 72 h (SN-38): > 300 nM
- IC50, cell viability 72 h (Lapatinib): > 10000 nM
- IC50, cell viability 72 h (Prexasertib): 433 nM
- IC50, cell viability 72 h (Doxorubicin): > 1000 nM
- IC50, cell viability 72 h (AZD7648): > 10000 nM
- IC50, cell viability 72 h (Venetoclax): > 1000 nM
- IC50, cell viability 72 h (Dasatinib): > 2000 nM
- IC50, cell viability 72 h (Crizotinib): > 10000 nM
- IC50, cell viability 72 h (Capivasertib): > 10000 nM
- IC50, cell viability 72 h (AZD6738): > 10000 nM
- IC50, cell viability 72 h (Taselisib): > 10000 nM
- IC50, cell viability 72 h (AZD4320): > 1000 nM
- IC50, cell viability 72 h (AZD0156): > 3000 nM
- IC50, cell viability 72 h (Savolitinib): > 1000 nM
- IC50, cell viability 72 h (Selumetinib): > 10000 nM
- IC50, cell viability 72 h (Alisertib): > 10000 nM
- IC50, cell viability 72 h (SG3199): > 1 nM
- IC50, cell viability 72 h (AZD1390): > 300 nM
- IC50, cell viability 72 h (Trametinib): > 1000 nM
- IC50, cell viability 72 h (Palbociclib): > 10000 nM
- IC50, cell viability 72 h (AZD8186): 1910 nM
- IC50, cell viability 72 h (AZD1775): > 3000 nM
- IC50, cell viability 72 h (Olaparib): > 10000 nM

Cell Line: PA-1 (Ovarian Carcinoma)
- IC50, cell viability 72 h (AZD2811): > 1000 nM
- IC50, cell viability 72 h (AZD5991): 80.7 nM
- IC50, cell viability 72 h (Gefitinib): > 10000 nM
- IC50, cell viability 72 h (AZD5153): 41.1 nM
- IC50, cell viability 72 h (SN-38): 19.6 nM
- IC50, cell viability 72 h (Lapatinib): 5150 nM
- IC50, cell viability 72 h (Prexasertib): 187 nM
- IC50, cell viability 72 h (Doxorubicin): 209 nM
- IC50, cell viability 72 h (AZD7648): > 10000 nM
- IC50, cell viability 72 h (Venetoclax): > 1000 nM
- IC50, cell viability 72 h (Dasatinib): 30.2 nM
- IC50, cell viability 72 h (Crizotinib): 3090 nM
- IC50, cell viability 72 h (Capivasertib): 941 nM
- IC50, cell viability 72 h (AZD6738): 3170 nM
- IC50, cell viability 72 h (Taselisib): 248 nM
- IC50, cell viability 72 h (AZD4320): > 1000 nM
- IC50, cell viability 72 h (AZD0156): > 3000 nM
- IC50, cell viability 72 h (Savolitinib): > 1000 nM
- IC50, cell viability 72 h (Selumetinib): > 10000 nM
- IC50, cell viability 72 h (Alisertib): 238 nM
- IC50, cell viability 72 h (SG3199): > 1 nM
- IC50, cell viability 72 h (AZD1390): > 300 nM
- IC50, cell viability 72 h (Trametinib): 869 nM
- IC50, cell viability 72 h (Palbociclib): 1620 nM
- IC50, cell viability 72 h (AZD8186): 1060 nM
- IC50, cell viability 72 h (AZD1775): 543 nM
- IC50, cell viability 72 h (Olaparib): > 10000 nM

Cell Line: SISO (Cervical Carcinoma)
- IC50, cell viability 72 h (AZD2811): > 1000 nM
- IC50, cell viability 72 h (AZD5991): > 1000 nM
- IC50, cell viability 72 h (Gefitinib): > 10000 nM
- IC50, cell viability 72 h (AZD5153): > 1000 nM
- IC50, cell viability 72 h (SN-38): 23.6 nM
- IC50, cell viability 72 h (Lapatinib): > 10000 nM
- IC50, cell viability 72 h (Prexasertib): 237 nM
- IC50, cell viability 72 h (Doxorubicin): 290 nM
- IC50, cell viability 72 h (AZD7648): > 10000 nM
- IC50, cell viability 72 h (Venetoclax): > 1000 nM
- IC50, cell viability 72 h (Dasatinib): > 2000 nM
- IC50, cell viability 72 h (Crizotinib): > 10000 nM
- IC50, cell viability 72 h (Capivasertib): > 10000 nM
- IC50, cell viability 72 h (AZD6738): > 10000 nM
- IC50, cell viability 72 h (Taselisib): > 10000 nM
- IC50, cell viability 72 h (AZD4320): > 1000 nM
- IC50, cell viability 72 h (AZD0156): > 3000 nM
- IC50, cell viability 72 h (Savolitinib): > 1000 nM
- IC50, cell viability 72 h (Selumetinib): > 10000 nM
- IC50, cell viability 72 h (Alisertib): 6210 nM
- IC50, cell viability 72 h (SG3199): > 1 nM
- IC50, cell viability 72 h (AZD1390): > 300 nM
- IC50, cell viability 72 h (Trametinib): > 1000 nM
- IC50, cell viability 72 h (Palbociclib): > 10000 nM
- IC50, cell viability 72 h (AZD8186): > 3000 nM
- IC50, cell viability 72 h (AZD1775): 1530 nM
- IC50, cell viability 72 h (Olaparib): > 10000 nM
